# Assay results published in US20240043943A1, “METHODS AND COMPOSITIONS FOR PROTEASE REPORTER ASSAYS AND MODULATORS” (712 NORTH, INC., priority 2021, published 2024).
# Entries after “also recorded” stand apart in the source; their conditions may differ.
# Columns and labels:
# Luke-TEV reporter [1] = experiment: Luke-TEV control reporter bioluminescence assay in Hek293T cells; assay type: cell-based, human
# Source text: (§1) Luke-S1 is targeted to the mitochondrial inner membrane by an 86 amino acid portion of OPA1's […] with the protein sequence SEQ ID NO: 27 and the DNA sequence SEQ ID ID NO:28.
# [2] = molecular target: T1, Luke (native NanoLuc enzyme) (Oplophorus gracilirostris, UniProt Q9GV45, A31E/A60N/A81I/F95D/I117V/K70R/L54V/L99Q/M102K/N193R/P142E/Q151K/Q38R/Q45L/V71I/Y165I); experiment: Luke (native NanoLuc) control cell bioluminescence assay in Hek293T cells; assay type: cell-based; details: for bioluminescence of Luke cells in dose-response: 30 minutes incubation
# T1 construct: expressed in transfected cells
# Source text: as §1
# OPA1 = OPA1 hydrolysis in Hek293T cells by Western blot; assay type: cell-based, human; details: 30 minutes
# Source text: (§2) OPA1 hydrolysis can be monitored by Western blotting. […] The predicted size of full-length Luke-S1 is 31.8 kDa.
# Luke-S1 reporter = experiment: Rep#15 / Luke-S1 reporter cleavage in Hek293T cells by Western blot; assay type: cell-based, human; details: for cleavage of the Luke-S1 reporter in Western blots: 3 μM CCCP or 100 nM valinomycin
# Experimental: For this example, transfected cells were selected by puromycin. […] […] If reporter #15 indeed is cleaved by OMA1, then phenanthroline should prevent this at least to a certain extend by inhibiting OMA1 and accordingly preserving the signal. Hek293T cells were transfected with reporter gene #15 as described in the preceding example. After 24 hours, the transfected cells were incubated with 500 μM phenanthroline in OptiMEM. After 1 hour of pretreatment, CCCP in OptiMEM/phenanthroline was added. to a final concentration of 10 μM CCCP and cells incubated for another 30 minutes at 37° C. After 30 minutes, the medium was replaced with furimazine (1:100 in OptiMEM), and bioluminescence measured as described in Example 1.
# as §2
# Luke-TEV reporter [3] = experiment: Luke-TEV reporter cleavage in Hek293T cells by Western blot; assay type: cell-based, human; details: 3 μM CCCP or 100 nM valinomycin
# Source text: as §2
# reporter #01 = experiment: Rep#01 reporter hydrolysis in Hek293T cells by Western blot; assay type: cell-based, human; details: 10 μM CCCP, 30 minutes
# Experimental: Example 2 refers to FIG. 4 and illustrates hydrolysis of reporter #01 and reporter #15. For this example, transfected cells were selected by puromycin. Reporter cells were exposed for 30 minutes to 10 μM CCCP before being harvested in RIPA buffer and subjected to 12% SDS-PAGE followed by Western-blotting. […] Full-length reporter #01 has a predicted size of 39.6 kDa but was not detected in Western blots. […] At the same time, reporter #15 is not processed upon import, but migrated at its expected size of 31.9 kDa. (Example 7 establishes mitochondrial import by showing co-migration of reporter #15 with OPA1 and OMA1 in mitochondria-enriched fractions.) Reporter #15 appears to be more abundant and stable, which may explain its better performance. […] This provides additional evidence that reporter #15 is indeed localized in mitochondria where it is recognized and hydrolyzed by OMA1. […] Therefore, phenanthroline was used as a positive control in the reporter assay. If reporter #15 indeed is cleaved by OMA1, then phenanthroline should prevent this at least to a certain extend by inhibiting OMA1 and accordingly preserving the signal. Hek293T cells were transfected with reporter gene #15 as described in the preceding example. […] After 30 minutes, the medium was replaced with furimazine (1:100 in OptiMEM), and bioluminescence measured as described in Example 1.
# OMA1 protease [4] = molecular target: T2, OMA1 protease (Homo sapiens, UniProt Q96E52); experiment: Rep#15 / Luke-S1 OMA1 reporter bioluminescence assay in Hek293T cells; assay type: cell-based; set-up: The OMA1 enzyme is dormant under physiological cell culture conditions in these cells; endogenous in cells; host or cells: Hek293T cells, transiently or stably (Luke-S1 line, ATCC PTA-127022) expressing reporter #15; details: Hek293T, 30 minutes exposure; CCCP 10 μM
# T2 sequence (Q96E52 144-524): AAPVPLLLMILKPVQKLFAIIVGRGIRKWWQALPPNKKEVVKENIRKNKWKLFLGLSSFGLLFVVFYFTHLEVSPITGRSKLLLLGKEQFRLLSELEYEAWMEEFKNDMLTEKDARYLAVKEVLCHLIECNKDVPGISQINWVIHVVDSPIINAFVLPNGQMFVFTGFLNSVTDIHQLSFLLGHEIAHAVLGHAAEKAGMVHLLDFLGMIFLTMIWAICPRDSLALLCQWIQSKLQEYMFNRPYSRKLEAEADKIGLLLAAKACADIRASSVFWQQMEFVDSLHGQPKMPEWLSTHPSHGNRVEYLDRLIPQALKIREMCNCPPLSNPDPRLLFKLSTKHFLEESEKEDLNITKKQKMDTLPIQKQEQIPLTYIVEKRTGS
# Source text: Example 1 provides a nonlimiting example of generation and use of a reporter of present invention and illustrates its function. To this end, generation and use of reporter gene #01 (SEQ ID NO: 01) and reporter gene #15 (SEQ ID NO: 15) are described and their function compared to each other. The general design of a reporter of present invention is illustrated in FIG. 1A and its working principle in FIG. 1B. A reporter in general, and reporter gene #01 and reporter gene #15 in particular, can be generated as follows. DNA sequences of a reporter may be codon-optimized in silico or by any other way for expression in a suitable host. DNA sequences of reporter genes #01 and #15 were codon-optimized for expression in humans (SEQ ID NO: 02 and SEQ ID NO: 16, respectively). The (optimized) sequences were synthesized and cloned into a pcDNA3.1 expression vector under the control of a CMV promotor (see FIG. 1 for an illustration of such vector). Of course, an expression system and a host should match for best results. The host in this example were Hek293T cells, which were maintained under standard culture conditions in DMEM with 10% Fetal Bovine Serum and 1% Pen/Strep. For an experiment, Hek293T cells were seeded in opaque white tissue-culture treated 96-well plates at 80% confluency and transfected with vectors carrying reporter gene #01 and reporter gene #15 and 24 hours later incubated for 30 minutes at 37° C. in OptiMEM or in OptiMEM with 10 μM CCCP. After 30 minutes, the OptiMEM cell-culture media was replaced with luciferase substrate (furimazine, Promega) diluted 1:100 in OptiMEM, and bioluminescence was measured with a Fluoroskan Ascent FL (Thermo Scientific) using a 517 nm single-pass filter and 200 milliseconds integration time. […] Reporter #01 comprises a large part of OPA1's amino-terminus as mitochondrial targeting sequence, which is cleaved by the mitochondrial processing peptidase upon mitochondrial import (see Example 2). Reporter #15 was initially envisioned as a control for reporter #01. Reporter #15 therefore lacks the first 66 amino acids of reporter #01 believed to be essential for mitochondrial import.
# Example 5 illustrates how mitochondrial toxicity can be measured with reporter and assays of present invention. The OMA1-OPA1 pathway basically serves as a “canary-in-the-coalmine” for a mitochondrial deterioration. […] Hek293T cells expressing reporter #01 and #15 were exposed to CCCP, tipranavir and sorafenib (in OptiMEM) for 30 minutes before the medium was replaced with furimazine (1:100), and bioluminescence measured.
# The following non-limiting examples illustrate in more details the in vivo assessment of OMA1 protease activity utilizing an artificial luciferase reporter of present invention stably expressed in Hek293T cells.
# OMA1 protease [5] = molecular target: T2, OMA1 protease; experiment: Rep#01 OMA1 reporter bioluminescence assay in Hek293T cells; assay type: cell-based; set-up: The OMA1 enzyme is dormant under physiological cell culture conditions in these cells; endogenous in cells; host or cells: Hek293T cells, transiently or stably (Luke-S1 line, ATCC PTA-127022) expressing reporter #15; details: 30 minutes exposure, CCCP 10 μM
# Source text: Example 1 provides a nonlimiting example of generation and use of a reporter of present invention and illustrates its function. To this end, generation and use of reporter gene #01 (SEQ ID NO: 01) and reporter gene #15 (SEQ ID NO: 15) are described and their function compared to each other. The general design of a reporter of present invention is illustrated in FIG. 1A and its working principle in FIG. 1B. A reporter in general, and reporter gene #01 and reporter gene #15 in particular, can be generated as follows. DNA sequences of a reporter may be codon-optimized in silico or by any other way for expression in a suitable host. DNA sequences of reporter genes #01 and #15 were codon-optimized for expression in humans (SEQ ID NO: 02 and SEQ ID NO: 16, respectively). The (optimized) sequences were synthesized and cloned into a pcDNA3.1 expression vector under the control of a CMV promotor (see FIG. 1 for an illustration of such vector). Of course, an expression system and a host should match for best results. The host in this example were Hek293T cells, which were maintained under standard culture conditions in DMEM with 10% Fetal Bovine Serum and 1% Pen/Strep. For an experiment, Hek293T cells were seeded in opaque white tissue-culture treated 96-well plates at 80% confluency and transfected with vectors carrying reporter gene #01 and reporter gene #15 and 24 hours later incubated for 30 minutes at 37° C. in OptiMEM or in OptiMEM with 10 μM CCCP. After 30 minutes, the OptiMEM cell-culture media was replaced with luciferase substrate (furimazine, Promega) diluted 1:100 in OptiMEM, and bioluminescence was measured with a Fluoroskan Ascent FL (Thermo Scientific) using a 517 nm single-pass filter and 200 milliseconds integration time. […]
# Example 5 illustrates how mitochondrial toxicity can be measured with reporter and assays of present invention. […] Hek293T cells expressing reporter #01 and #15 were exposed to CCCP, tipranavir and sorafenib (in OptiMEM) for 30 minutes before the medium was replaced with furimazine (1:100), and bioluminescence measured.
# OMA1 protease [6] = molecular target: T2, OMA1 protease; details: literature; cited from earlier work
# OMA1 protease [7] = molecular target: T2, OMA1 protease; experiment: Screen of 166 FDA-approved cancer drugs and 390 natural products in Luke-S1 assays; assay type: cell-based; set-up: The OMA1 enzyme is dormant under physiological cell culture conditions in these cells; endogenous in cells; host or cells: Hek293T cells, transiently or stably (Luke-S1 line, ATCC PTA-127022) expressing reporter #15; details: valinomycin treated controls, ± SD
# Experimental: Luke-S1 reporter cells were incubated with 10 μM of drugs for 60 minutes after which luciferase substrate was added and bioluminescence measured.
# OMA1 protease [8] = molecular target: T2, OMA1 protease; experiment: Rep#15 / Luke-S1 OMA1 reporter bioluminescence assay in Hek293T cells; assay type: cell-based; set-up: The OMA1 enzyme is dormant under physiological cell culture conditions in these cells; endogenous in cells; host or cells: Hek293T cells, transiently or stably (Luke-S1 line, ATCC PTA-127022) expressing reporter #15
# T1 sequence (Q9GV45 with tags, fused parts or gaps with the stated changes): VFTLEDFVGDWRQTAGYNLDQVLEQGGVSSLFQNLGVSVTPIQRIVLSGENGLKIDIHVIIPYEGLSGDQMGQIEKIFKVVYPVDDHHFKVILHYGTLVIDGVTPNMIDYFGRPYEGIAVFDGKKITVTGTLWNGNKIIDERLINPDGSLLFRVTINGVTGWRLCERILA
Structure (SMILES),"EC50 (Luke-TEV reporter [1]; Luke-TEV cells, 30 minutes incubation)",bioluminescence of Luke cells in dose-response [2],L-OPA1 proteolysis in Western blots (OPA1; 3 μM CCCP),cleavage of the Luke-S1 reporter in Western blots (Luke-S1 reporter),"processing of reporter #15 in Western blot (Luke-S1 reporter; 10 μM CCCP, 30 minutes)",cleavage of the Luke-TEV reporter in Western blots (Luke-TEV reporter [3]),processing of reporter #01 in Western blot (reporter #01),bioluminescence signal of reporter #15 (OMA1 protease [4]),bioluminescence signal of reporter #01 (OMA1 protease [5]),real-time bioluminescence of Luke-TEV vs cells without valinomycin (Luke-TEV reporter [1]; 100 nM valinomycin added with luciferase substrate),signal of Luke-TEV cells in dose-response (Luke-TEV reporter [1]; 30 minutes incubation),"real-time bioluminescence of Luke vs cells without valinomycin ([2]; 100 nM valinomycin added with luciferase substrate, after 10 minutes)",L-OPA1 proteolysis in Western blots (OPA1; 0.1 μM (100 nM) valinomycin),effect on OMA1 protease (OMA1 protease [6]),signal intensity normalized to untreated cells (100%) (OMA1 protease [7]),"real-time bioluminescence of Luke-S1 vs cells without valinomycin (OMA1 protease [8]; 100 nM valinomycin added with luciferase substrate, 25 minutes recording)","Luke-S1 signal in cells treated with OMA1 siRNA (OMA1 protease [8]; 100 nM valinomycin, 30 minutes)","Luke-S1 signal in cells treated with control siRNA (OMA1 protease [8]; 100 nM valinomycin, 30 minutes)","Luke-S1 signal in cells treated with OMA1 siRNA (OMA1 protease [8]; 100 nM valinomycin, 30 minutes, listed as Valinomycin)"
"N#CC(C#N)=NNc1cccc(Cl)c1 [CCCP, carbonyl cyanide m-chlorophenyl hydrazone]",566 nM,completely eliminated,complete disappearance of L-OPA1 isoforms; also recorded: complete L-OPA1 proteolysis,induced cleavage of the Luke-S1 reporter; also recorded: induced Luke-S1 and Luke-TEV cleavage,led to processing,cleaved; also recorded: induced Luke-S1 and Luke-TEV cleavage,led to processing,significantly reduced or substantially absent luciferase activity; also recorded: abolished; also recorded: significantly reduced bioluminescence,significantly reduced bioluminescence,–,–,–,–,–,–,–,–,–,–
CC(C)[C@@H]1NC(=O)[C@H](C)OC(=O)[C@@H](C(C)C)NC(=O)[C@@H](C(C)C)OC(=O)[C@H](C(C)C)NC(=O)[C@H](C)OC(=O)[C@@H](C(C)C)NC(=O)[C@@H](C(C)C)OC(=O)[C@H](C(C)C)NC(=O)[C@H](C)OC(=O)[C@@H](C(C)C)NC(=O)[C@@H](C(C)C)OC1=O [valinomycin],–,no effects,–,induced cleavage of the Luke-S1 reporter; also recorded: induced Luke-S1 and Luke-TEV cleavage,–,cleaved; also recorded: induced Luke-S1 and Luke-TEV cleavage,–,–,–,much smaller difference,only a minor signal reduction,no notable differences,sufficed for OPA1 cleavage; also recorded: complete L-OPA1 proteolysis,can activate the OMA1 protease,18.5%,marked signal reduction,no significant signal reduction,significant signal reduction,not in Luke-S1 cells treated with OMA1 siRNA
